Measurements: US20160310519A1, “MODIFIED G-QUADRUPLEX NANOPARTICLES” (NANYANG TECHNOLOGICAL UNIVERSITY, priority 2013, published 2016)

How the values were obtained:
[1] = CD melting experiments of multiple N2-modified G-quadruplexes in low salt; assay type: physicochemical; settings: low salt (1 mM KPi+1 mM KCl), CD at 290 nm
Experimental: CD melting experiments were performed for the unmodified sequence and for sequences containing multiple N2-modifications. Samples contained 4-5 μM DNA by strand concentration in 1 mM KCl and 1 mM KPi. Samples were heated to 95° C. (98° C. for N2-Ball-with-Hair sample) and cooled to 15° C. at a rate of 0.2° C./min. Samples were then heated in a similar manner. Data was recorded every 0.5° C. at 290 nm and corrected by subtraction at 320 nm. Normalized melting curves are used to determine the melting temperature (Tm) of modified sequences, which is taken as an average of the heating and cooling curves.
The designed sequences were tested in a “low salt” solution of 1 mM KPi+1 mM KCl. Of the sequences tested with multiple modifications, SEQ ID Nos. 38, 39, 41 and 42 were determined to maintain the (3+1) conformation by analysis of ^1H NMR and CD spectra, which were highly similar to SEQ ID NO:1 (FIG. 4).
Additionally, these changes in stability were roughly equivalent to the sum of stability changes observed for the individual single-position substitutions.

[2] = Temperature dependent CD spectra under physiological salt conditions; assay type: physicochemical
Experimental: Spectra were recorded on a JASCO-815 spectropolarimeter (Tokyo, Japan). Samples contained a DNA strand concentration of 4-5 μM. […] Spectra were normalized through subtracting by the CD absorbance at 320 nm and dividing by concentration of the sample determined by concurrent UV absorption measurements. Samples were annealed prior to recording of CD spectra by heating to 100° C. and allowed to cool slowly at room temperature.
The stability of the “Ball with Hair” structure formed by SEQ ID NO:42 under “physiological salt” conditions (10 mM Kpi+130 mM KCL) was similar to those experienced in a cellular environment. NMR spectra of SEQ ID NO:42 under physiological salt conditions matched the spectra recorded in low salt conditions.

| Substance | Δ Tm [1] | melting temperature [1] [°C] | Δ Tm ([1]; listed as ball with hair) [°C] | melting temperature ([2]; physiological K+ conditions (10 mM KPi+130 mM KCl)) [°C] | CD signal intensity observed at 95° C. ([2]; physiological salt (10 mM KPi+130 mM KCl), 95° C.) |
| --- | --- | --- | --- | --- | --- |
| SEQ ID NO:38: contains two ^HexG substitutions into separate grooves in positions that were highly stabilizing in the single-substitutions studies (TTNGGTTANGGTTAGGGTTAGGGA; two N2-hexyl guanine modifications, chemistry not fully specified) | +6.9 °C | – | – | – | – |
| SEQ ID NO:39: contains two ^MetG substitutions of guanines that neighbors within the wide groove (TTGGGTTAGNNTTAGGGTTAGGGA; two N2-methyl guanine modifications, chemistry not fully specified) | +18.2 °C | – | – | – | – |
| SEQ ID NO:41: designed to contain a modification in each groove of the G-quadruplex nanoparticle (TTNGGTTANGNTTANGGTTAGGGA; DNA, backbone and the base at N not given here; N2-modified guanines at marked positions) | +26.6 °C | – | – | – | – |
| SEQ ID NO:42: containing eight ^HexG modifications towards the design of a "Ball with Hair" type of nanoparticle (TTNNGTTANGNTTANGNTTAGNNA; eight N2-hexyl guanine modifications, chemistry not fully specified) | +46.2 °C | 91.7 | 46 | > 95 | more than 80% |
| SEQ ID NO:43: contains a variety of 8 N2-modifications aimed to maximize the thermal stability (TTNGGTTANGNTTANGNTTANGNA; DNA, backbone and the base at N not given here; further chemistry not fully specified) | +35.6 °C | – | – | – | – |
